Series [1] deals with T1, Ubiquitin thioesterase OTUB1 (Homo sapiens, UniProt Q96FW1). In words: Inhibition of N-terminal His-6 tagged OTUB1 (40 to 271 residues) (unknown origin) expressed in Escherichia coli BL21 (DE3) cells at 10 nM using Ub-Rho measured after 0.5 to 3 hrs by fluorescence based Plate reader method relative to control. Conditions: time 0.5-3 hrs, values are per cent of control.

The target in series [2] is T2, Ubiquitin carboxyl-terminal hydrolase 8 (Homo sapiens) (UniProt P40818).
T2 sequence (whole entry): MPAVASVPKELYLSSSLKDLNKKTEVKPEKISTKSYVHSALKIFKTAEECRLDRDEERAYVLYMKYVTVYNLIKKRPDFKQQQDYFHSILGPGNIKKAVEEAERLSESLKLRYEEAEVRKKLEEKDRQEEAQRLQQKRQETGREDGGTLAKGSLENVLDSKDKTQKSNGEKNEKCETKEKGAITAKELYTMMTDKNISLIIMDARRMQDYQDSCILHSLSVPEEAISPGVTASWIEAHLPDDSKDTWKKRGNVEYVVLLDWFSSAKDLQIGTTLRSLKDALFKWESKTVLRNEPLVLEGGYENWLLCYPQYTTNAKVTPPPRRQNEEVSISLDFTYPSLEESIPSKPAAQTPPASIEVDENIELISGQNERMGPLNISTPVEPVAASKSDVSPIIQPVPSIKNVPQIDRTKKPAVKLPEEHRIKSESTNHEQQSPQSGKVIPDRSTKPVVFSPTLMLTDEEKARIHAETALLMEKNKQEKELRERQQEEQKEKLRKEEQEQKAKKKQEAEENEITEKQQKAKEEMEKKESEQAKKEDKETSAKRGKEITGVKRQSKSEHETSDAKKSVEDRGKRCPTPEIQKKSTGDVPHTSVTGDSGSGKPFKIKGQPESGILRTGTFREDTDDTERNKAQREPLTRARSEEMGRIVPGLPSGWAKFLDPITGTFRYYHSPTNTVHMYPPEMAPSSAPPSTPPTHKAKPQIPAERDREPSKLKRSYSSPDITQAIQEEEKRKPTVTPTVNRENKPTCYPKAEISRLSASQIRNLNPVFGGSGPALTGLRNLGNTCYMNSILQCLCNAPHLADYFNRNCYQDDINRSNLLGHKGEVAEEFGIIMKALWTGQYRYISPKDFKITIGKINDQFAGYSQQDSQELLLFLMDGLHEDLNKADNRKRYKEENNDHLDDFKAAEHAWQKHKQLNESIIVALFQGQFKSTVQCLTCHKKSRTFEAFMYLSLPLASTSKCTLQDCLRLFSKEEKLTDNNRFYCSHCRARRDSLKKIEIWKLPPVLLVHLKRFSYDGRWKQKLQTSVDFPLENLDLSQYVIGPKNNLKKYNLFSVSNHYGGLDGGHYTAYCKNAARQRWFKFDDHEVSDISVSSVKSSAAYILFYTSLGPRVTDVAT
Kind of series: Inhibition of N-terminal His-6 tagged USP8 (734 to 1110 residues) (unknown origin) expressed in Escherichia coli BL21 (DE3) cells at 100 nM measured after 3 hrs by fluorescence based Plate reader method relative to control. The conditions noted are these: values are per cent of control.

Series [3] can be described thus: Aqueous solubility of the compound measured after 24 hr by […] LC-MS/MS analysis. It is filed as physicochemical. The conditions noted are these: buffer.
Series [4] addresses T1, Ubiquitin thioesterase OTUB1. In words: Inhibition of N-terminal His-6 tagged OTUB1 (40 to 271 residues) (unknown origin) expressed in Escherichia coli BL21 (DE3) cells using Ub-Rho measured after 0.5 to 3 hrs by fluorescence based Plate reader method.
Series [5] deals with T3, Ubiquitin carboxyl-terminal hydrolase 8 (Homo sapiens, UniProt P40818).
T3 sequence (P40818 whole entry): T2 sequence (whole entry)
In words: Inhibition of N-terminal His-6 tagged USP8 (734 to 1110 residues) (unknown origin) expressed in Escherichia coli BL21 (DE3) cells measured after 3 hrs by fluorescence based Plate reader method.

Series [6] concerns the target T4, Ubiquitin carboxyl-terminal hydrolase 36 (Homo sapiens, UniProt Q9P275).
T4 sequence (Q9P275 whole entry): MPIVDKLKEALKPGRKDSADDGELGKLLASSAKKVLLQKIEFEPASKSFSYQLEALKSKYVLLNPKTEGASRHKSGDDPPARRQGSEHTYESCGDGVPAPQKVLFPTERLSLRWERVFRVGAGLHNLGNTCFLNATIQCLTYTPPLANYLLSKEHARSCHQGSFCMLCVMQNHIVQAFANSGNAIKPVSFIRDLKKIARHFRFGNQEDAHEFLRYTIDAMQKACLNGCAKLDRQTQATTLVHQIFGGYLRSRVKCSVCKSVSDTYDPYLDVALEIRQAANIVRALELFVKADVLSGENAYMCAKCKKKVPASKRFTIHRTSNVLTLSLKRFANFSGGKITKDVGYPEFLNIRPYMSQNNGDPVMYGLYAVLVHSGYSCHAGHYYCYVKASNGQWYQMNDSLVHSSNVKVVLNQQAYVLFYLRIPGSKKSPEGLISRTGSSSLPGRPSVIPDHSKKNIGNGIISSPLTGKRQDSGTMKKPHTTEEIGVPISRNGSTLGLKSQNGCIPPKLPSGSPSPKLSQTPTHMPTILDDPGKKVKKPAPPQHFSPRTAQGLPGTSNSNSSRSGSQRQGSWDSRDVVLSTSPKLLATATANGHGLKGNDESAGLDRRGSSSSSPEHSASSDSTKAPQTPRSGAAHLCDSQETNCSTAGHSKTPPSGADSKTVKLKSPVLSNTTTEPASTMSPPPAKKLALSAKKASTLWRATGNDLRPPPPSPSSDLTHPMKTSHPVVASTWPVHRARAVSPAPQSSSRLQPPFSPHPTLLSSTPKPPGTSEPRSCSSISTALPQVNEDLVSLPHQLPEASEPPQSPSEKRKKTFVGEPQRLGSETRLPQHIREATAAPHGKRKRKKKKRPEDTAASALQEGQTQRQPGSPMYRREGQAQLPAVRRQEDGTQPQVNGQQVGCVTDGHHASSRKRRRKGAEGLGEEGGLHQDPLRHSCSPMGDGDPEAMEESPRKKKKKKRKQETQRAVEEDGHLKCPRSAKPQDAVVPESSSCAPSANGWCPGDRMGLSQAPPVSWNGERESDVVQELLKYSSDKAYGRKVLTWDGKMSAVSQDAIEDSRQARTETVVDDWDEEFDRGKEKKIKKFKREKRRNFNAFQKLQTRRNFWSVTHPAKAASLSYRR
In words: Inhibition of USP36 (unknown origin) using Ub-Rho measured after 0.5 to 3 hrs.

A value given as a limit tells only on which side of the number the result lay.

T1 sequence (Q96FW1 whole entry, the tested form may be a part): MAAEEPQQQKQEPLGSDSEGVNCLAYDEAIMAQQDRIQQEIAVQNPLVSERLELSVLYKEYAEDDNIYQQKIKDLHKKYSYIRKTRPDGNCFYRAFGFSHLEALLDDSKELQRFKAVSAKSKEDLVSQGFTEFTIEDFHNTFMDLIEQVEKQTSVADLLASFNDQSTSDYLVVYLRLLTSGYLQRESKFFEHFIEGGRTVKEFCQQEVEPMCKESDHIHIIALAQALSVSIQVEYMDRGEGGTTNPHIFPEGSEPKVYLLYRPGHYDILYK

For orientation: residual activity means the share of the control activity or signal that is left under treatment. Low readings indicate little activity left, high ones much activity left. As a reminder, the IC50 is the concentration at which inhibition is half-maximal. A lower IC50 goes with greater potency in that assay. With `CN1CC[C@@H](Oc2ccc(Cl)c(-c3nc4c(o3)C(=O)c3ccccc3C4=O)c2)C1`, the residual activity in series [1] is 28.9%; in series [2], 25%. The solubility result in series [3] is “Soluble”. Besides, the IC50 was 7.1 nM in series [4], 1.27 nM in series [5] and more than 10000 nM in series [6].
With `O=C1c2ccccc2C(=O)c2oc(-c3cccnc3)nc21`, the residual activity in series [1] was 42.4%; in series [2] it was 32.2%. Also, the IC50 is 1.7 nM in series [4], 2.7 nM in series [5] and 3900 nM in series [6].
For the compound `CN1CC[C@@H](Oc2ccc(F)c(-c3nc4c(o3)C(=O)c3ccccc3C4=O)c2Cl)C1`, the residual activity in series [1] amounted to 10.5%; in series [2] it was 16.5%. Also, in series [3], the solubility entry is listed as “Soluble”. In addition, the IC50 was found to be 0.17 nM in series [4], 0.28 nM in series [5] and 8400 nM in series [6].
For `CN1CC[C@@H](Oc2ccc(Cl)c(-c3nc4c(o3)C(=O)c3ccccc3C4=O)c2F)C1`, the residual activity was found to be 10.7% in series [1] and 20.5% in series [2]. The solubility result in series [3] was “Soluble”. The IC50 in series [4] was found to be 0.42 nM; in series [5], 2 nM; in series [6] it was 7200 nM.

For the origin of these results see ChEMBL document CHEMBL5108067, “Discovery of Potent OTUB1/USP8 Dual Inhibitors Targeting Proteostasis in Non-Small-Cell Lung Cancer” (J Med Chem, 2022).
